Tested on: 4T1-luc2 cells
Assay: In vitro validation of released drug efficacy
Type: cell-based
Conditions: after 4 hours, free drug dose equals cumulative cisplatin release at 4 hours
Description: Additional controls include unloaded MPs and untreated cells. […] As shown in these experiments, the local release of high levels of payload may result in a stark increase in efficiency for the treatment of diseased cells.

**Q.** For `N.N.[Cl][Pt][Cl]` [Cisplatin], which “cell death as compared to control” value is on record?
**A.** little to no cell death
